Data reported in patent US20250122203A1, “ADENOSINE RECEPTOR ANTAGONISTS” (Crossignal Therapeutics, Inc., priority 2021, published 2025).

Experiments:
[1] = biological target: human adenosine A2a receptor (Homo sapiens, UniProt P29274); assay: Adenosine A2a Receptor Whole Cell Cyclic AMP Assay; conditions: HEK293 cells stably expressing human A2a; for A2a @ 100 μM Adenosine (cAMP IC50): in the presence of 100 μM adenosine; for A2a @ 1 μM Adenosine (cAMP IC50): in the presence of 1 μM adenosine
[2] = biological target: T1, human adenosine A2b receptor (Homo sapiens, UniProt P29275); assay: Adenosine A2b Receptor Whole Cell Cyclic AMP Assay; conditions: HEK293 cells transfected with human A2b; in the presence of 10 μM adenosine
T1 sequence (P29275 1-332): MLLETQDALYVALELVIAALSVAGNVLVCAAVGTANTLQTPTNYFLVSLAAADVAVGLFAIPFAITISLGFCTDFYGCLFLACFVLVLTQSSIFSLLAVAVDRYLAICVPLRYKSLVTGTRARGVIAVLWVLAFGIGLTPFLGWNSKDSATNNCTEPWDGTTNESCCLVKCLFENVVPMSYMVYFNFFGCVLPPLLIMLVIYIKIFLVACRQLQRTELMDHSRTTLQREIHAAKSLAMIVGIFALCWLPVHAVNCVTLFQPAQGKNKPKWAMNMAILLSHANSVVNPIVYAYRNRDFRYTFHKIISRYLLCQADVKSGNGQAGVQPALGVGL

Sequence of human adenosine A2a receptor (P29274 whole entry): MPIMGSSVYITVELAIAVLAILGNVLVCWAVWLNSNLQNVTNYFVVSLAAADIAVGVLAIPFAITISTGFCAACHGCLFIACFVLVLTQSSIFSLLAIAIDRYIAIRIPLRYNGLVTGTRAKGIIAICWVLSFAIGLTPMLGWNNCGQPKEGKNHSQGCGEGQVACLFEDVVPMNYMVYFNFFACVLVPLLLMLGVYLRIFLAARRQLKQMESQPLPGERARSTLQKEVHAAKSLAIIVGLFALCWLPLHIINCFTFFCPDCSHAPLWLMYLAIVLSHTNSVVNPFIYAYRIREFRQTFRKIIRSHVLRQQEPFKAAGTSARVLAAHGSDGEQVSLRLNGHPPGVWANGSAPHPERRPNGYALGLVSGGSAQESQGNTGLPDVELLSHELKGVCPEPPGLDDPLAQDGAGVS

SMILES	A2a @ 100 μM Adenosine (cAMP IC50) [1]	A2a @ 1 μM Adenosine (cAMP IC50) [1]	further results
Nc1nc(-c2ccc(F)cc2)c(-c2ccc3ncoc3c2)n2nnnc12 [1-10, 5-(benzo[d]oxazol-6-yl)-6-(4-fluorophenyl)tetrazolo[1,5-a]pyrazin-8-amine]	+ (partial)	–	–
Nc1nc(-c2ccc(F)cc2)c(-c2ccc3ncc(Cl)n3c2)n2nnnc12 [1-23, 5-(3-chloroimidazo[1,2-a]pyridin-6-yl)-6-(4-fluorophenyl)tetrazolo[1,5-a]pyrazin-8-amine]	++ (partial)	–	–
Cc1cc(-c2c(-c3ccc(F)cc3)nc(N)n3nnnc23)cc(C)n1 [1-28, 8-(2,6-dimethylpyridin-4-yl)-7-(4-fluorophenyl)tetrazolo[1,5-c]pyrimidin-5-amine]	–	–	A2b @ 10 μM Adenosine (cAMP IC50) [2]: + (partial)
Cc1ccnc2ccc(-c3c(-c4ccc(C(=O)N(C)C)cc4)nc(N)c4nnnn34)cc12 [1-40, 4-(8-amino-5-(4-methylquinolin-6-yl)tetrazolo[1,5-a]pyrazin-6-yl)-N,N-dimethylbenzamide]	–	+++ (partial)	–
Cc1ccnc2ccc(-c3c(-c4ccc(F)cc4)nc(N)c4nnnn34)cc12 [1-6, 6-(4-fluorophenyl)-5-(4-methylquinolin-6-yl)tetrazolo[1,5-a]pyrazin-8-amine]	++ (partial)	–	–
Cc1ccnc2ccc(-c3c(-c4cccc(Cl)c4)nc(N)c4nnnn34)cc12 [1-50, 6-(3-chlorophenyl)-5-(4-methylquinolin-6-yl)tetrazolo[1,5-a]pyrazin-8-amine]	–	+++ (partial)	–
Cc1ccnc2ccc(-c3c(-c4ccc(Cl)cc4)nc(N)c4nnnn34)cc12 [1-39, 6-(4-chlorophenyl)-5-(4-methylquinolin-6-yl)tetrazolo[1,5-a]pyrazin-8-amine]	–	+++ (partial)	–
